Data from US7635722B1, “Chemical induced intracellular hyperthermia” (priority 1998, dated 2009).

Tests used:
[1] = test system: chronically HIV infected HUT-78 cells; assay: in vitro inactivation of chronically HIV infected cells; format: cell-based; conditions: varying concentrations of DNP (FIG. 16)
Excerpt: Clinical assessment and treatment evaluation: HIV and HIV-infected T cells are known to be more sensitive to killing by heat than uninfected lymphocytes. Susceptibility to heat killing is enhanced with increased oxygen free radical production. Acute and chronically infected cells have decreased levels of manganous superoxide dismutase (MnSOD) activity. MnSOD is located exclusively in mitochondria. Mathematical modeling of human HIV production and CD4+ T cell turnover predicts that reducing both free virus and actively infected cells by a minimum of 40% with 1 hour of 42° C. therapeutic hyperthermia every third day will promote recovery of the uninfected T-cell population. Human HIV studies with extracorporeal hyperthermia of 41-42° C. have reported isolated cases of extended patient survival, elimination of detectable virus, and improvement of Kaposi's sarcoma lesions. DNP is known to generate intracellular hyperthermia and oxygen free radicals from the level of the inner mitochondrial membrane. Studies on in vitro inactivation of chronically HIV infected HUT-78 cells by various concentrations of DNP are graphically represented in FIG. 16.

[2] = test system: dimethyl benzo-dithionaphthene derived ascites fibrosarcoma; assay: DNP induced hyperthermia with thermosensitive liposomes, ascites fibrosarcoma (Example 5); format: in vivo, Swiss albino mice
Experimental: The anticancer drug dacarbazine [5-(3,3′-dimethyl-1-triazino) imidazole-4-carboxamide] was encapsulated in these heat-sensitive liposomes at a concentration of 3 mg/ml. The in vivo efficacy of the thermosensitive, liposome encapsulated dacarbazine was tested on Swiss albino mice transplanted with a dimethyl benzo-dithionaphthene derived ascites fibrosarcoma subjected to DNP induced hyperthermia.
Male, 10-12-week-old, Swiss albino mice were injected with 3×10^6 viable fibrosarcoma cells into the peritoneum. After 15 days the animals were divided into various treatment and control groups receiving intraperitoneal injections of free dacarbazine, DNP alone, DNP+empty liposomes and DNP+liposome encapsulated dacarbazine. DNP induced hyperthermia was recorded with neonatal rectal and 22 ga. hypodermic YSI probes. Temperatures were recorded 30 minutes after a 20 mg/kg intraperitoneal dose of DNP. DNP was administered every day for a total of 5 doses. In all cases the hypodermic, intraperitoneal temperatures were 1° C. higher than the rectal.

[3] = test system: arterial catheter balloon injury; assay: arterial catheter balloon injury after DNP pretreatment; format: in vivo, Sprague-Dawley rats; conditions: rats pretreated with DNP induced hyperthermia (FIG. 21)
Excerpt: This method of DNP induced preconditioning could be used to decrease intimal thickening and restenosis after angioplasty, improve ischemia/reperfusion injury in organ and tissue transplantation, and improve surgical outcome of procedures that require temporary or prolonged occlusion of arterial blood flow.

hepatitis C virus = assay: DNP with interferon-alpha, chronic hepatitis C (Example 10); format: in vivo, human
Experimental: Pretreatment protocol: each evening prior to treatment the patient was instructed not to eat after 7 pm and dress in cotton clothes. Approximately 6 hours prior to intravenous DNP administration they were to be given 1.5 million units of subcutaneous interferon-alpha every 3rd day. Repeat blood work, including CBC and platelet count, AST, ALT, and hepatitis C-RNA levels would be initially obtained at 48 hours and weekly thereafter. No efforts were to be made to prevent body heat loss. A single intravenous line was placed with a 21-gauge interacath. Heart rate, rectal thermistor, and VO2 monitoring was conducted during therapy as outlined.
Treatment procedure: the patient presented themself for outpatient treatment and was given a subcutaneous dose of 1.5 million units of interferon-alpha. Approximately 6 hours thereafter, at 1 pm, a baseline VO2 recording of 5 minutes was 160 cc/min. They were infused with 1 mg/kg DNP over a 2 minute period. At 20 minutes, their VO2 increased and stabilized at approximately 210 cc/min. A second dose of 1 mg/kg DNP was infused and the VO2 peaked 20 minutes later at 250 cc/min. An additional dose of 2.0 mg/kg DNP was given 30 minutes following the second dose. […] The patient's rectal temperature increased and never exceeded 1.3° C. above their normal baseline. Two hours after their last dose of DNP, their VO2 declined to 280 cc/min. An additional 2 mg/kg dose of DNP was administered. The patients VO2 increased and stabilized 20 minutes thereafter to a level of 420 cc/min. […] Throughout treatment the patient was permitted to drink fluids ad libitum. […] The 5 day treatment protocol was repeated after a 2 day “DNP rest period”. This regimen was repeated times 3. Subcutaneous interferon-alpha was administered for a total of 10 weeks.

[4] = man and animals accidentally intoxicated; cited from earlier work
[5] = test system: inner mitochondrial membrane; conditions: lowered from −180; cited from earlier work
[6] = test system: tumors and normal fibroblasts; conditions: many tumors and normal fibroblasts treated with DNP; cited from earlier work

## O=[N+]([O-])c1ccc(O)c([N+](=O)[O-])c1 [DNP, 2,4-dinitrophenol]
[1]
  killing of chronically HIV infected HUT-78 cells: killing of chronically HIV infected HUT-78 cells
[2]; 30 minutes after 20 mg/kg intraperitoneal DNP
  hypodermic, intraperitoneal temperature higher than the rectal: 1 °C
[2]; FIG. 20, DNP 20 mg/kg ip every day, 5 doses
  survival curves in comparison to controls: significantly improved
[2]; sham treated animals all died by 60
  animals remained alive: ≥ 100 days
[3]
  proliferative arterial catheter balloon injury: limitation of proliferative arterial catheter balloon injury
Hepatitis C virus; 18 months after therapy
  ALT: normalization
  HCV viral genome: remained cleared from their bloodstream
Hepatitis C virus; after 48 hours, DNP with interferon-alpha
  decrease of hepatitis C-RNA viral load: approximately 2 logs
Hepatitis C virus; at 48 hours, elevated until week 3
  increase of alanine transaminase (ALT) levels: 7 fold
Hepatitis C virus; at 48 hours, pretreatment levels at day 7
  increase of alkaline phosphatase levels: 2 fold
Hepatitis C virus; during treatment
  CBC, bilirubin, and blood urea nitrogen (BUN): remained within normal limits
Hepatitis C virus; over the next 5 days
  further decrease of viral load: an additional log
Hepatitis C virus; week 2 and thereafter
  HCV-RNA: undetectable
[4]
  hyperthermia: up to 49 °C
[5]
  inner mitochondrial membrane potential: −145 mV
[6]
  increase in heat production: 83%
  increase in oxygen consumption: 36%
